# Columns and labels:
# Format in all cases: in vivo
# IL-12 [1] = assay: IL-12 levels in sera upon i.v. glycolipid administration to C57BL/6 mice (ELISA); design: IL-12 levels, test 1 / IL-12 levels, test 2 / IL-12 levels, average / IL-12 levels, Total: unit not given here
# In short: (§1)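 Mice were injected intravenously with 1 μg of each glycolipid diluted in PBS, and sera were taken at 0, 2, 6, 12, 24, 48 and 72 h. Serum cytokines were then measured by ELISA against a standard curve.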
# IFN-γ [2] = assay: IFN-γ levels in sera upon i.v. glycolipid administration to C57BL/6 mice (ELISA); design: IFN-γ levels, test 1 / IFN-γ levels, test 2 / IFN-γ levels, average / IFN-γ levels, Total / IFN-γ (B6): unit not given here
# In short: as §1
# IFN-γ [3] = assay: IFN-γ levels in sera upon i.v. glycolipid administration to BALB/c mice (ELISA); design: IFN-γ levels, test 1 / IFN-γ levels, test 2 / IFN-γ levels, average / IFN-γ levels, Total: unit not given here; details: BALB/c
# In short: as §1
# IL-12 [4] = assay: IL-12 levels in sera upon i.v. glycolipid administration to BALB/c mice (ELISA); design: IL-12 levels, test 1 / IL-12 levels, test 2 / IL-12 levels, average / IL-12 levels, Total: unit not given here
# In short: as §1
# [5] = C57BL/6, ratio calculated from Tables 1-6
# [6] = C57BL/6, serum, total over hours 0-72
# [7] = ratio calculated from Tables 1-6
compound,measurement,setting,value
CCCCCCCCCCCCCC[C@@H](O)[C@@H](O)[C@H](CC[C@H]1O[C@H](CO)[C@H](O)[C@H](O)[C@H]1O)NC(=O)CCCCCCCCCCCCCCCCCCCOCCCCCC [A-4],IL-12/IL-4 (B6),IL-12 [1]; [5],1.3
same,"IL-12 levels, average","IL-12 [1]; C57BL/6, serum, hour 0",5
same,"IL-12 levels, test 1","IL-12 [1]; C57BL/6, serum, hour 0",5
same,"IL-12 levels, test 2","IL-12 [1]; C57BL/6, serum, hour 0",5
same,"IL-12 levels, average","IL-12 [1]; C57BL/6, serum, hour 2",458.5
same,"IL-12 levels, test 1","IL-12 [1]; C57BL/6, serum, hour 2",490
same,"IL-12 levels, test 2","IL-12 [1]; C57BL/6, serum, hour 2",427
same,"IL-12 levels, average","IL-12 [1]; C57BL/6, serum, hour 6",685.5
same,"IL-12 levels, test 1","IL-12 [1]; C57BL/6, serum, hour 6",740
same,"IL-12 levels, test 2","IL-12 [1]; C57BL/6, serum, hour 6",631
same,"IL-12 levels, average","IL-12 [1]; C57BL/6, serum, hour 12",124
same,"IL-12 levels, test 1","IL-12 [1]; C57BL/6, serum, hour 12",18
same,"IL-12 levels, test 2","IL-12 [1]; C57BL/6, serum, hour 12",230
same,"IL-12 levels, average","IL-12 [1]; C57BL/6, serum, hour 24",0
same,"IL-12 levels, test 1","IL-12 [1]; C57BL/6, serum, hour 24",0
same,"IL-12 levels, test 2","IL-12 [1]; C57BL/6, serum, hour 24",0
same,"IL-12 levels, average","IL-12 [1]; C57BL/6, serum, hour 48",0
same,"IL-12 levels, test 1","IL-12 [1]; C57BL/6, serum, hour 48",0
same,"IL-12 levels, test 2","IL-12 [1]; C57BL/6, serum, hour 48",0
same,"IL-12 levels, average","IL-12 [1]; C57BL/6, serum, hour 72",0
same,"IL-12 levels, test 1","IL-12 [1]; C57BL/6, serum, hour 72",0
same,"IL-12 levels, test 2","IL-12 [1]; C57BL/6, serum, hour 72",0
same,"IL-12 levels, Total",IL-12 [1]; [6],1274
same,IFN-γ/IL-4 (B6),IFN-γ [2]; [5],10
same,"IFN-γ levels, average","IFN-γ [2]; C57BL/6, serum, hour 0",31
same,"IFN-γ levels, test 1","IFN-γ [2]; C57BL/6, serum, hour 0",31
same,"IFN-γ levels, test 2","IFN-γ [2]; C57BL/6, serum, hour 0",31
same,"IFN-γ levels, average","IFN-γ [2]; C57BL/6, serum, hour 2",308.5
same,"IFN-γ levels, test 1","IFN-γ [2]; C57BL/6, serum, hour 2",255
same,"IFN-γ levels, test 2","IFN-γ [2]; C57BL/6, serum, hour 2",362
same,"IFN-γ levels, average","IFN-γ [2]; C57BL/6, serum, hour 6",1329
same,"IFN-γ levels, test 1","IFN-γ [2]; C57BL/6, serum, hour 6",1381
same,"IFN-γ levels, test 2","IFN-γ [2]; C57BL/6, serum, hour 6",1277
same,"IFN-γ levels, average","IFN-γ [2]; C57BL/6, serum, hour 12",2335.5
same,"IFN-γ levels, test 1","IFN-γ [2]; C57BL/6, serum, hour 12",2466
same,"IFN-γ levels, test 2","IFN-γ [2]; C57BL/6, serum, hour 12",2205
same,"IFN-γ levels, average","IFN-γ [2]; C57BL/6, serum, hour 24",5563.5
same,"IFN-γ levels, test 1","IFN-γ [2]; C57BL/6, serum, hour 24",5291
same,"IFN-γ levels, test 2","IFN-γ [2]; C57BL/6, serum, hour 24",5836
same,"IFN-γ levels, average","IFN-γ [2]; C57BL/6, serum, hour 48",742
same,"IFN-γ levels, test 1","IFN-γ [2]; C57BL/6, serum, hour 48",581
same,"IFN-γ levels, test 2","IFN-γ [2]; C57BL/6, serum, hour 48",903
same,"IFN-γ levels, average","IFN-γ [2]; C57BL/6, serum, hour 72",220.5
same,"IFN-γ levels, test 1","IFN-γ [2]; C57BL/6, serum, hour 72",245
same,"IFN-γ levels, test 2","IFN-γ [2]; C57BL/6, serum, hour 72",196
same,"IFN-γ levels, Total",IFN-γ [2]; [6],10532
same,IFN-γ/IL-4 (BALB/c),IFN-γ [3]; [7],44
same,"IFN-γ levels, average","IFN-γ [3]; serum, hour 0",27
same,"IFN-γ levels, test 1","IFN-γ [3]; serum, hour 0",27
same,"IFN-γ levels, test 2","IFN-γ [3]; serum, hour 0",27
same,"IFN-γ levels, average","IFN-γ [3]; serum, hour 2",142.5
same,"IFN-γ levels, test 1","IFN-γ [3]; serum, hour 2",140
same,"IFN-γ levels, test 2","IFN-γ [3]; serum, hour 2",145
same,"IFN-γ levels, average","IFN-γ [3]; serum, hour 6",1742
same,"IFN-γ levels, test 1","IFN-γ [3]; serum, hour 6",1778
same,"IFN-γ levels, test 2","IFN-γ [3]; serum, hour 6",1706
same,"IFN-γ levels, average","IFN-γ [3]; serum, hour 12",6513.5
same,"IFN-γ levels, test 1","IFN-γ [3]; serum, hour 12",4988
same,"IFN-γ levels, test 2","IFN-γ [3]; serum, hour 12",8039
same,"IFN-γ levels, average","IFN-γ [3]; serum, hour 24",14100
same,"IFN-γ levels, test 1","IFN-γ [3]; serum, hour 24",14000
same,"IFN-γ levels, test 2","IFN-γ [3]; serum, hour 24",14200
same,"IFN-γ levels, average","IFN-γ [3]; serum, hour 48",929.5
same,"IFN-γ levels, test 1","IFN-γ [3]; serum, hour 48",752
same,"IFN-γ levels, test 2","IFN-γ [3]; serum, hour 48",1107
same,"IFN-γ levels, average","IFN-γ [3]; serum, hour 72",56.5
same,"IFN-γ levels, test 1","IFN-γ [3]; serum, hour 72",47
same,"IFN-γ levels, test 2","IFN-γ [3]; serum, hour 72",66
same,"IFN-γ levels, Total","IFN-γ [3]; serum, total over hours 0-72",22676
same,IL-12/IL-4 (BALB/c),IL-12 [4]; [7],12
same,"IL-12 levels, average","IL-12 [4]; serum, hour 0",5
same,"IL-12 levels, test 1","IL-12 [4]; serum, hour 0",5
same,"IL-12 levels, test 2","IL-12 [4]; serum, hour 0",5
same,"IL-12 levels, average","IL-12 [4]; serum, hour 2",54.5
same,"IL-12 levels, test 1","IL-12 [4]; serum, hour 2",57
same,"IL-12 levels, test 2","IL-12 [4]; serum, hour 2",52
same,"IL-12 levels, average","IL-12 [4]; serum, hour 6",914.5
same,"IL-12 levels, test 1","IL-12 [4]; serum, hour 6",730
same,"IL-12 levels, test 2","IL-12 [4]; serum, hour 6",1099
same,"IL-12 levels, average","IL-12 [4]; serum, hour 12",4463
same,"IL-12 levels, test 1","IL-12 [4]; serum, hour 12",3799
same,"IL-12 levels, test 2","IL-12 [4]; serum, hour 12",5127
same,"IL-12 levels, average","IL-12 [4]; serum, hour 24",333.5
same,"IL-12 levels, test 1","IL-12 [4]; serum, hour 24",396
same,"IL-12 levels, test 2","IL-12 [4]; serum, hour 24",271
same,"IL-12 levels, average","IL-12 [4]; serum, hour 48",89
same,"IL-12 levels, test 1","IL-12 [4]; serum, hour 48",58
same,"IL-12 levels, test 2","IL-12 [4]; serum, hour 48",120
same,"IL-12 levels, average","IL-12 [4]; serum, hour 72",64.5
same,"IL-12 levels, test 1","IL-12 [4]; serum, hour 72",78
same,"IL-12 levels, test 2","IL-12 [4]; serum, hour 72",51
same,"IL-12 levels, Total","IL-12 [4]; serum, total over hours 0-72",5926
